Data taken from article PMC6719172, “Inhibition of CpLIP2 Lipase Hydrolytic Activity by Four Flavonols (Galangin, Kaempferol, Quercetin, Myricetin) Compared to Orlistat and Their Binding Mechanisms Studied by Quenching of Fluorescence” (Molecules, 2019).

Legend:
CpLIP2 lipase = CpLIP2 lipase (Candida parapsilosis, UniProt Q8NIN8); assay: Quenching of CpLIP2 intrinsic tryptophan fluorescence by flavonols (Stern–Volmer, Lehrer, van't Hoff analysis); type: binding; details: for KSV (Stern–Volmer quenching constant): CpLIP2 2.5 µM, pH 7.0, flavonol 2.5–25 µM (GAL 2.5–17.5 µM); for Kq (bimolecular quenching constant): Kq = KSV/τ0, τ0 1.59 ns; for KSV (accessible), Stern–Volmer quenching constant of the exposed W residues / fa (fraction of accessible W residues to the quencher): Lehrer equation; for ΔG (free energy change): ΔG = ΔH − TΔS; for Kd: Kd (dissociation constant); for order of magnitude of Kq: all temperatures of Table 1; for ΔS (entropy changes): van't Hoff plot, 298–328 K
Chain of CpLIP2 lipase (Q8NIN8 entry or part of it): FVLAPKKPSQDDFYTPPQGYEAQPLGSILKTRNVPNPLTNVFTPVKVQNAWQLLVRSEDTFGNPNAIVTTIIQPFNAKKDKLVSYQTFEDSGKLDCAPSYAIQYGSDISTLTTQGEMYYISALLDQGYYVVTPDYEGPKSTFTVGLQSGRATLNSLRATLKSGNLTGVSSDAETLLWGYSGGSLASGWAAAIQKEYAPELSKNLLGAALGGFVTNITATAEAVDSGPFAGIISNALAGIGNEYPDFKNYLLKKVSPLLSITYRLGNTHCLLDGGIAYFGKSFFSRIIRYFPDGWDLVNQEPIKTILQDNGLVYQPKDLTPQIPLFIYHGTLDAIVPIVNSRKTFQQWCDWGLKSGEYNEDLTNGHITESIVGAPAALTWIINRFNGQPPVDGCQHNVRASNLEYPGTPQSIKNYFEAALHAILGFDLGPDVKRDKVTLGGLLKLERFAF
Source text: The fluorescence quenching spectra of CpLIP2 lipase submitted to increasing concentrations of GAL, KAE, QUE and MYR are shown in Figure 3. A remarkable quenching of the CpLIP2 fluorescence emission was observed. […] The fluorescence quenching is usually described by the linear Stern–Volmer Equations (2) and (3):(2) F0/F = 1 + Ksv [Q] = 1 + Kqτ0 [Q] (3) Kq=Ksv/τ0 where F0 and F are the intrinsic fluorescence intensities of CpLIP2 lipase (fluorophore) in absence or presence of quencher (flavonol), respectively. Kq is the bimolecular quenching constant, τ0 is the lifetime of the fluorophore in the absence of the quencher, [Q] is the concentration of the quencher, and KSV is the Stern–Volmer quenching constant.
The mechanism of quenching, occurring between CpLIP2 lipase and flavonols, was characterized by determining the values of Kq and the thermodynamic parameters by varying the temperature. […] In both cases, the bimolecular quenching constant Kq can be calculated by the ratio between KSV and τ0, itself determined at 1.59 ns for Human Pancreatic Lipase.
The inaccessible or buried residues are responsible for the remaining fluorescence, which is probably independent of the quencher concentration. […] An up-down curvature towards the x-axis has been shown for the four flavonols (Figure 4), indicating the presence of two populations of fluorophores, part of which would not be accessible. That means that some W residues are buried inside the lipase structure and that other residues are exposed to the solvent. Therefore, data were analyzed through the Lehrer equation, also known as the modified (or non-linear) Stern–Volmer Equation (4):(4) F0/ F0−F = 1/ fa Ksv 1/ [Q] +1/ fa
For static quenching, the equilibrium between free and bound CpLIP2 lipase, when the ligand molecules bind independently to equivalent sites of macromolecules, can be described by the following Equation (5):(5) log10F0−F/F=nlog10[Q]+log10Ka where Ka is the binding constant and n the number of binding sites per CpLIP2 molecule.
The results were determined for all flavonols tested at different temperatures from the plots of log10 F0 − F/F versus log10 [Q] and listed in Table 2. The plots show a linear relationship from which the slope equal to n and intercept on y-axis equal to log10 Ka. For the four flavonols, the Ka values increased when the temperatures increased. In addition, the n values were less than 1.0 in all cases and increased according to the temperature. […] Values of the dissociation constant of complexes were deduced from the Stern–Volmer Equation (6) and (7), for which Kd is expressed as the inverse of fa Ksv product. (6) F0/ F0−F= Kd 1/ [Q] +1 (7) Kd= 1/fa Ksv
Thermodynamic parameters were calculated to determine the type of binding forces that contribute in the CpLIP2 lipase–flavonol interactions. […] Both the enthalpy (ΔH) and entropy changes (ΔS) can be estimated from the following van′t Hoff Equation (8):(8) Ln Ka = − ΔH /RT + ΔS /R
The values of Gibbs binding free energy change (ΔG) are calculated from the following Equation (9):(9) ΔG= ΔH − TΔS
To fill up the volume of 300 µL by well, 190 µL of sodium phosphate buffer solution (75 mM, pH 7.0) was added to each well to obtain final concentration at 50 mM. Then, 100 µL of ethanol absolute–water ultrapure (2:8, v/v) solution was added to obtain a final amount of ethanol […] in the well of 300 µL. […] The final concentration of ethanol during the experiments never exceeded 0.07% (v/v). The last step was to add 10 µL of lipase after to have optimized the final concentration of CpLIP2 equal to 2.5 µM for all our assays, giving the optimal fluorescence intensity for all measurements. The measurement of intrinsic fluorescence started after mechanical shaking for 30 s inside the multi-plate reader. […]

[1] = set-up: method as in PMID 24601218, doi:10.1021/ja00090a032; details: cited from earlier work
[2] = target: C. rugosa commercial lipase; set-up: method as in doi:10.1016/j.molcatb.2006.02.012; details: cited from earlier work

## O=c1c(O)c(-c2ccc(O)cc2)oc2cc(O)cc(O)c12 [KAE, kaempferol]
CpLIP2 lipase; 298 K
  Ka (association constant): 458 ± 2. L·mol^−1
  n (number of binding sites): 0.63 ± 0.07
  KSV (Stern–Volmer quenching constant): 2.1 ± 0.2 × 10^4 L·mol^−1
  Kq (bimolecular quenching constant): 1.3e+13 M⁻¹ s⁻¹
  KSV (accessible), Stern–Volmer quenching constant of the exposed W residues: 140000 L/mol
  fa (fraction of accessible W residues to the quencher): 0.45
  ΔG (free energy change): -9.39 kcal/mol
  Kd: 16 ± 3 µM
CpLIP2 lipase; 308 K
  Ka (association constant): 476 ± 4 L/mol
  n (number of binding sites): 0.63 ± 0.07
  KSV (Stern–Volmer quenching constant): 1.9 ± 0.7 × 10^4 L·mol^−1
  Kq (bimolecular quenching constant): 1.2e+13 M⁻¹ s⁻¹
  KSV (accessible), Stern–Volmer quenching constant of the exposed W residues: 170000 L/mol
  fa (fraction of accessible W residues to the quencher): 0.43
  ΔG (free energy change): -9.7 kcal/mol
  Kd: 14 ± 5 µM
CpLIP2 lipase; 318 K
  Ka (association constant): 862 ± 3 L/mol
  n (number of binding sites): 0.69 ± 0.09
  KSV (Stern–Volmer quenching constant): 1.8 ± 0.7 × 10^4 L·mol^−1
  Kq (bimolecular quenching constant): 1.1e+13 M⁻¹ s⁻¹
  KSV (accessible), Stern–Volmer quenching constant of the exposed W residues: 150000 L/mol
  fa (fraction of accessible W residues to the quencher): 0.42
  ΔG (free energy change): -10 kcal/mol
  Kd: 16 ± 7 µM
CpLIP2 lipase; 328 K
  Ka (association constant): 1290 ± 2 L/mol
  n (number of binding sites): 0.75 ± 0.07
  KSV (Stern–Volmer quenching constant): 1.6 ± 0.6 × 10^4 L·mol^−1
  Kq (bimolecular quenching constant): 1e+13 M⁻¹ s⁻¹
  KSV (accessible), Stern–Volmer quenching constant of the exposed W residues: 150000 L/mol
  fa (fraction of accessible W residues to the quencher): 0.34
  ΔG (free energy change): -10.3 kcal/mol
  Kd: 19 ± 9 µM
CpLIP2 lipase
  order of magnitude of Kq: ~10^13 L mol^−1 s^−1
  ΔS (entropy changes): 0.13 kJ·mol^−1·K^−1
[1]
  pKa1: 8.2
[2]
  IC50: 6300 µM

## O=c1c(O)c(-c2cc(O)c(O)c(O)c2)oc2cc(O)cc(O)c12 [MYR, myricetin]
CpLIP2 lipase; 298 K
  Ka (association constant): 45.21 ± 1 L/mol
  n (number of binding sites): 0.43 ± 0.02
  KSV (Stern–Volmer quenching constant): 1.6 ± 0.1 × 10^4 L·mol^−1
  Kq (bimolecular quenching constant): 1e+13 M⁻¹ s⁻¹
  KSV (accessible), Stern–Volmer quenching constant of the exposed W residues: 290000 L/mol
  fa (fraction of accessible W residues to the quencher): 0.34
  ΔG (free energy change): -6.26 kcal/mol
  Kd: 10 ± 1 µM
CpLIP2 lipase; 308 K
  Ka (association constant): 53.09 ± 2 L/mol
  n (number of binding sites): 0.46 ± 0.03
  KSV (Stern–Volmer quenching constant): 1.3 ± 0.5 × 10^4 L·mol^−1
  Kq (bimolecular quenching constant): 8.2e+12 M⁻¹ s⁻¹
  KSV (accessible), Stern–Volmer quenching constant of the exposed W residues: 280000 L/mol
  fa (fraction of accessible W residues to the quencher): 0.32
  ΔG (free energy change): -6.45 kcal/mol
  Kd: 11 ± 4 µM
CpLIP2 lipase; 318 K
  Ka (association constant): 44.79 ± 1 L/mol
  n (number of binding sites): 0.44 ± 0.02
  KSV (Stern–Volmer quenching constant): 1.2 ± 0.4 × 10^4 L·mol^−1
  Kq (bimolecular quenching constant): 7.7e+12 M⁻¹ s⁻¹
  KSV (accessible), Stern–Volmer quenching constant of the exposed W residues: 320000 L/mol
  fa (fraction of accessible W residues to the quencher): 0.30
  ΔG (free energy change): -6.67 kcal/mol
  Kd: 10 ± 4 µM
CpLIP2 lipase; 328 K
  Ka (association constant): 97.14 ± 2 L/mol
  n (number of binding sites): 0.51 ± 0.09
  KSV (Stern–Volmer quenching constant): 1.4 ± 0.5 × 10^4 L·mol^−1
  Kq (bimolecular quenching constant): 9e+12 M⁻¹ s⁻¹
  KSV (accessible), Stern–Volmer quenching constant of the exposed W residues: 250000 L/mol
  fa (fraction of accessible W residues to the quencher): 0.33
  ΔG (free energy change): -6.88 kcal/mol
  Kd: 12 ± 7 µM
CpLIP2 lipase; across temperatures
  fa (fraction of accessible W residues): 0.33
  n (number of binding sites): 0.43
CpLIP2 lipase
  order of magnitude of Kq: ~10^13 L mol^−1 s^−1
  ΔS (entropy changes): 0.10 kJ·mol^−1·K^−1
[1]
  pKa1: 6.6

## O=c1c(O)c(-c2ccc(O)c(O)c2)oc2cc(O)cc(O)c12 [QUE, quercetin]
CpLIP2 lipase; 298 K
  Ka (association constant): 2034 ± 2 L/mol
  n (number of binding sites): 0.78 ± 0.06
  KSV (Stern–Volmer quenching constant): 1.8 ± 0.1 × 10^4 L·mol^−1
  Kq (bimolecular quenching constant): 1.1e+13 M⁻¹ s⁻¹
  KSV (accessible), Stern–Volmer quenching constant of the exposed W residues: 70000 L/mol
  fa (fraction of accessible W residues to the quencher): 0.54
  ΔG (free energy change): -10.1 kcal/mol
  Kd: 27 ± 6 µM
CpLIP2 lipase; 308 K
  Ka (association constant): 1824 ± 9 L/mol
  n (number of binding sites): 0.77 ± 0.05
  KSV (Stern–Volmer quenching constant): 1.6 ± 0.6 × 10^4 L·mol^−1
  Kq (bimolecular quenching constant): 1e+13 M⁻¹ s⁻¹
  KSV (accessible), Stern–Volmer quenching constant of the exposed W residues: 80000 L/mol
  fa (fraction of accessible W residues to the quencher): 0.52
  ΔG (free energy change): -10.4 kcal/mol
  Kd: 24 ± 10 µM
CpLIP2 lipase; 318 K
  Ka (association constant): 3041 ± 2 L/mol
  n (number of binding sites): 0.81 ± 0.07
  KSV (Stern–Volmer quenching constant): 1.6 ± 0.6 × 10^4 L·mol^−1
  Kq (bimolecular quenching constant): 1e+13 M⁻¹ s⁻¹
  KSV (accessible), Stern–Volmer quenching constant of the exposed W residues: 70000 L/mol
  fa (fraction of accessible W residues to the quencher): 0.55
  ΔG (free energy change): -10.8 kcal/mol
  Kd: 25 ± 10 µM
CpLIP2 lipase; 328 K
  Ka (association constant): 4616 ± 3 L/mol
  n (number of binding sites): 0.85 ± 0.11
  KSV (Stern–Volmer quenching constant): 2.0 ± 0.7 × 10^4 L·mol^−1
  Kq (bimolecular quenching constant): 1.3e+13 M⁻¹ s⁻¹
  KSV (accessible), Stern–Volmer quenching constant of the exposed W residues: 50000 L/mol
  fa (fraction of accessible W residues to the quencher): 0.69
  ΔG (free energy change): -11.1 kcal/mol
  Kd: 31 ± 13 µM
CpLIP2 lipase; across temperatures
  fa (fraction of accessible W residues): 0.55
CpLIP2 lipase
  order of magnitude of Kq: ~10^13 L mol^−1 s^−1
  ΔS (entropy changes): 0.14 kJ·mol^−1·K^−1
